Experimental data published in US8637252B2, “Methods and compositions for determining altered susceptibility of HIV-1 to anti-HIV drugs” (Monogram Biosciences, Inc., priority 2011, dated 2014).

Columns and labels:
[1] = tested on: HIV-1 (PRRT-RHIN segment of patient sample 62); test: phenotypic drug resistance test, PRRT-RHIN amplicon of sample 62; format: cell-based
Description: Patient-derived segment(s) corresponding to the entire pol gene, encoding HIV protease, reverse transcriptase (including RNAse H), and integrase (hereinafter “POL”), the portion of pol encoding amino acids 1-305 of reverse transcriptase (hereinafter “PR-RT”), the portion of pol encoding amino acids 319-440 of reverse transcriptase (including RNAse H), and integrase (hereinafter “RHIN”), were amplified by the reverse transcription-polymerase chain reaction method (RT-PCR) using viral RNA isolated from viral particles present in the plasma or serum of HIV-infected individuals as described below. The portion of pol encoding protease, amino acids 1-531 of reverse transcriptase (including RNase H) (hereinafter “PRRT-RH”), or the portion of pol encoding protease, reverse transcriptase (including RNAse H) and integrase (hereinafter “PRRT-RHIN”), were assembled from amplicons described above by standard recombinant DNA techniques involving a KpnI restriction site at amino acid 400 or a Pin A1 site at amino acid 315.
Drug resistance tests performed with test vectors were carried out using packaging host and target host cells consisting of the human embryonic kidney cell line 293.
Resistance tests were carried out with the RTV libraries by using viral particles comprising the RTV libraries to infect a host cell in which the expression of the indicator gene is measured. The amount of indicator gene (luciferase) activity detected in infected cells is used as a direct measure of “infectivity,” i.e., the ability of the virus to complete a single round of replication. Thus, drug resistance or sensitivity can be determined by plotting the amount of luciferase activity produced by patient derived viruses in the presence of varying concentrations of the antiviral drug. By identifying the concentration of drug at which luciferase activity is half-maximum, the IC50 of the virus from which patient-derived segment(s) were obtained for the antiretroviral agent can be determined. […]

[2] = tested on: HIV-1 NL4-3 site-directed reverse transcriptase mutants; test: phenotypic drug resistance test, site-directed reverse transcriptase mutants in NL4-3 background (POL segment assay); format: cell-based; details: for resistance versus known NNRTI mutation(s) alone: any of N348I, T369I, E399D combined with G190S, K103N, or K103R and V179D, NL4-3 background
Method: Further, a site directed double mutant T3691/K103N was generated using conventional techniques and tested for resistance to an NNRTI using the methods described above.
To assess the effects of mutations at positions 348, 369, and 399, a series of site-directed mutants were constructed in an wild-type (NL4-3) background. The NNRTI susceptibility phenotypes of these mutants were then determined using the POL segment assay according to Example 2.
In particular, site-directed mutants were constructed in an NL4-3 background comprising N348I, T369I, E399D, or the combination of N3481 and T369I.
Next, a series of site-directed mutants were constructed to assess the effects of combinations of N3481, T369I, and E399D with previously recognized NNRTI resistance mutations. In particular, mutants comprising N348I, T369I, and E399D were made in combination with G190S, with K103N, and with the combination of K103R and V179D. The effects of these combinations on DLV, EFV, and NVP susceptibility were tested using the POL segment assay according to the method describe in Example 2. The results from these experiments are presented as FIG. 10.
To assess the specific effects of mutations at positions 348, 369, and 399, a series of site-directed mutants were constructed in an wild-type (NL4-3) background. The AZT susceptibility phenotype of these mutants were then determined with a POL segment assay according to Example 2.
In particular, site-directed mutants were constructed in an NL4-3 background comprising N348I, T3691, E399D, or the combination of N348I and T3691. The FC in AZT susceptibility for each mutant is shown as FIG. 13.

SMILES | Fold Change in IC50, PRRT-RHIN amplicon [1] | FC in susceptibility relative to NL4-3, versus G190S mutant ([2]; G190S and E399D combination mutant) | resistance versus known NNRTI mutation(s) alone [2] | resistance of mutant ([2]; site-directed double mutant T369I/K103N)
CC(C)Nc1cccnc1N1CCN(C(=O)c2cc3cc(NS(C)(=O)=O)ccc3[nH]2)CC1 [DLV, delavirdine] | 140.00 fold | the same FC |  | 
O=C1Nc2ccc(Cl)cc2[C@@](C#CC2CC2)(C(F)(F)F)O1 [EFV, efavirenz] | 202.00 fold |  | increased | 
Cc1ccnc2c1NC(=O)c1cccnc1N2C1CC1 [NVP, nevirapine] | 400.00 fold |  | increased | enhanced resistance
